In brackets after ≈: the same amount, converted by molar mass.
How the values were obtained:
[1] = tested on: triple-negative breast cancer (HCC70) cell line; experiment: Resazurin cytotoxicity assay, HCC70; type: cell-based; conditions: for IC50 (µM) HCC70 / IC50: HCC70 cells, 96 h treatment, resazurin; for SI (Selectivity Index), IC50 of MCF-12A/IC50 of HCC70: HCC70 versus MCF-12A; for IC50: Homo sapiens
Method: (§1) The cytotoxicity of the pure compounds was evaluated using the in vitro cell culture against triple-negative breast cancer (HCC70) cell lines, hormone receptor-positive breast cancer (MCF-7), and non-tumorigenic epithelial cell lines derived from breast tissue (MCF-12A). A compound’s ability to inhibit a particular biochemical function is determined by its half-maximum inhibitory concentration (IC50). Etoposide was used as the positive control.
(§2) The cell viability after treatment with the isolated pure compounds of P. angolensis was analyzed using the resazurin assay in commercially available established cell lines purchased from the American Type Culture Collection. Triple-negative breast cancer cell line (HCC70) (estrogen receptor (ER)^−, progesterone receptor (PR), (HER-2)^−, (ATCC-CRL-2315)), hormone receptor-positive (ER^+, PR ^+, HER-2) breast cancer cell line (MCF-7) (ATCC: HTB-22), and non-tumorigenic breast epithelial cell line (MCF-12A) (ATCC: CRL-10782, a kind gift from Anna-Mart Engelbrecht, Stellenbosch University, Stellenbosch, South Africa) were maintained in culture in a 9% CO2 incubator at 37 °C. The HCC70 cell line was cultured in RPMI-1640 media (Gibco, Trenton, MI, USA) supplemented with 10% (v/v) fetal bovine serum (FBS) (BioWest, Nuaillé, France), 1% (v/v) 100 U/mL penicillin, streptomycin, and amphotericin (PSA) (Lonza, Basel, Switzerland), 1% (v/v) GlutaMAX^TM (Gibco) and 0.25% (v/v) sodium bicarbonate (Gibco). The MCF-7 cell line cell was cultured in Dulbecco’s Modified Eagles Medium (DMEM) (Gibco) supplemented with 10% (v/v) FBS, 1% (v/v) PSA and 1% (v/v) GlutaMAX^TM. The MCF-12A cell line was cultured in DMEM/Ham’s F-12 (BioWest) supplemented with 10% (v/v) FBS, 1% (v/v) PSA, 20 ng/mL human epidermal growth factor (Sigma, St. Louis, MO, USA), 100 ng/mL cholera toxin (Sigma), 500 ng/mL hydrocortisone (Abcam, Cambridge, UK) and 10 μg/mL insulin (Novo Nordisk, Bagsværd, Denmark). All cells were seeded into 96-well plates at a density of 5000 cells per well and allowed to adhere for the night in a 9% CO2 incubator at 37 °C. The cells were subsequently treated for 96 h at 37 °C in an incubator with 9 percent CO2 with the isolated compounds with […] at concentrations ranging from 15.63 to 500.00 μM or with 0.2% (v/v) DMSO (Sigma) as a vehicle control. Thereafter, 0.54 nM of resazurin (Glentham Life Sciences, Corsham, UK) solution was added, and cells were then cultured for two to four hours at 37 °C in an incubator with 9% CO2. A Spectramax spectrophotometer (Molecular Devices, Sunnyvale, CA, USA) was used to measure the fluorescence of the resulting solutions. The excitation and emission wavelengths were set at […], respectively. The experiment was repeated in technical triplicate, and the data were analyzed using GraphPad Prism (Boston, MA, USA). […] The selectivity index (SI) value of each compound was calculated as the ratio of IC50 of MCF-12A/IC50 of HCC70 or MFC-7 of the same compound, where an SI > 1 implies toxicity that is preferentially toxic to cancer cells compared to non-cancerous cells.

[2] = tested on: hormone receptor-positive breast cancer cell line (MCF-7); experiment: Resazurin cytotoxicity assay, MCF-7; type: cell-based; conditions: for IC50: Homo sapiens, MCF7; for SI (Selectivity Index), IC50 of MCF-12A/IC50 of MCF-7: MCF-7 versus MCF-12A
[3] = tested on: non-tumorigenic breast epithelial cell line (MCF-12A); experiment: Resazurin cytotoxicity assay, MCF-12A; type: cell-based; conditions: Homo sapiens, MCF-12A cells, 96 h treatment, read-out: IC50 (µM) MCF12A
Method: as §1, §2

MCF-7 = tested on: MCF-7; set-up: method as in PMID 28619518; conditions: 48 h; read-out: activity against MCF-7; cited from earlier work
CYP3A4 = tested on: CYP3A4; set-up: method as in PMID 30122094; conditions: read-out: inhibition of CYP3A4; cited from earlier work
[4] = tested on: 2E1 human liver microsomal; set-up: method as in PMID 30122094; conditions: read-out: inhibition of 2E1; cited from earlier work
insect-derived sf9 = tested on: insect-derived sf9; set-up: method as in PMID 19127726; conditions: cited from earlier work
Lactuca sativa seeds = tested on: Lactuca sativa seeds; set-up: method as in PMID 19127726; conditions: cited from earlier work
[5] = tested on: glioblastoma U87MG.EGFR cells, CEM/ADR5000 leukemia cells; set-up: method as in earlier work; conditions: read-out: IC50 cytotoxicity; cited from earlier work
CCRF-CEM cells = tested on: CCRF-CEM cells; set-up: method as in earlier work; conditions: read-out: IC50 cytotoxicity; cited from earlier work
[6] = tested on: oral epithelial carcinoma cells (KB/C152); set-up: method as in PMID 32334461; conditions: cited from earlier work
[7] = tested on: HeLa cervical cancer cells; set-up: method as in doi:10.15408/jkv.v1i1.20068; conditions: read-out: IC50 cytotoxicity; cited from earlier work
[8] = tested on: human ovarian cancer cell line, SKOV3; set-up: method as in PMID 32095097; conditions: SKOV3 cells; read-out: IC50 cytotoxicity; cited from earlier work
[9] = tested on: human endometrial carcinoma cell line HEC-1A; set-up: method as in PMID 32095097; conditions: HEC-1A cells; read-out: IC50 cytotoxicity; cited from earlier work
Staphylococcus aureus = tested on: Staphylococcus aureus; set-up: method as in PMID 19583913; conditions: cited from earlier work
[10] = tested on: Acinetobacter calcaoceuticus; set-up: method as in PMID 19583913; conditions: cited from earlier work
Staphylococcus typhi = tested on: Staphylococcus typhi; set-up: method as in PMID 19583913; conditions: cited from earlier work
Kocuria kristinae = tested on: Kocuria kristinae; set-up: method as in PMID 19583913; conditions: cited from earlier work
[11] = MCF-7 cells, 96 h treatment, resazurin

Row | Molecule | IC50 [3] [µM] | IC50 [2, 11] [µM] | SI (Selectivity Index), IC50 of MCF-12A/IC50 of MCF-7 [2] | SI (Selectivity Index), IC50 of MCF-12A/IC50 of HCC70 [1] | IC50 [1] [µM] | also measured
1 | C[C@H]1C(=O)CC[C@@H]2[C@]1(C)CC[C@H]1[C@@]2(C)CC[C@@]2(C)[C@@H]3CC(C)(C)CC[C@]3(C)CC[C@]12C [Compound 1, friedelan-3-one] | 43.9 | – | – | – | – | IC50 (µM) HCC70 [1]: Non-Toxic; IC50 (µM) MCF7 [2, 11]: Non-Toxic; IC50 (MCF-7): 1.2 µM; IC50 (CYP3A4): 10.8 µM; IC50 [4]: 22.5 µM
2 | C[C@H]1C(O)C(=O)CC2[C@]3(C)CC[C@@]4(C)C5CC(C)(C)CC[C@]5(C)CC[C@]4(C)C3CC[C@@]21C (stereo partly drawn) [Compound 2, 3α-hydroxyfriedel-2-one] | 84.2 | 157 | 0.53 | – | – | IC50 (µM) HCC70 [1]: Non-Toxic; cytotoxicity effect on sf9 (insect-derived sf9): 8.32 µg/mL; phytotoxicity against germination (Lactuca sativa seeds): no phytotoxicity
3 | CC1=C(O)C(=O)CC2[C@]3(C)CC[C@@]4(C)C5CC(C)(C)CC[C@]5(C)CC[C@]4(C)C3CC[C@]12C (some centres unmarked) [Compound 3, 3-hydroxyfriedel-3-en-2-one] | 136 | 101 | 1.35 | 0.93 | 146 | melting point: 265 to 268 °C
4 | C=C(C)[C@@H]1CC[C@]2(C)CC[C@]3(C)[C@H](CC[C@@H]4[C@@]5(C)CC[C@H](O)C(C)(C)[C@@H]5CC[C@]43C)[C@@H]12 [Compound 4, lup-20(29)-en-3-ol] | 36.6 | 149 | 0.25 | – | – | IC50 (µM) HCC70 [1]: Non-Toxic; IC50 [5]: 13.6 to 69.4 µM; IC50 (CCRF-CEM cells): 0.02 to 66.8 µM
5 | CC[C@H](/C=C/[C@@H](C)[C@H]1CC[C@H]2[C@@H]3CC=C4C[C@@H](O)CC[C@]4(C)[C@H]3CC[C@]12C)C(C)C [Compound 5, Stigmasta-5-22-dien-3-ol] | 44.1 | 227 | 0.19 | 0.40 | 109 | IC50 cytotoxicity [6]: 81.18 µg/mL (≈ 197 µM); IC50 [7]: 26.4 µM
6 | COc1ccc(C(C)C(=O)c2ccc(OC)cc2O)cc1 (centres unmarked) [Compound 6, 4-O-methylangolensis] | 148 | 77.5 | 1.91 | 1.32 | 111 | melting point: 70 to 71 °C
7 | CC(=O)OC1CCC2(C)C(CCC3(C)C2CC=C2C4CC(C)(C)CCC4(C(=O)O)CCC23C)C1(C)C (stereo not drawn) [Compound 7, (3β)-3-acetoxyolean-12-en-28-oic acid] | 143 | 83.1 | 1.72 | 0.97 | 147 | IC50 [8]: 8.3 µM; IC50 [9]: 0.8 µM
8 | CCCCCCCCCCCCCCOC(=O)/C=C/c1ccc(O)c(OC)c1 [Compound 8, tetradecyl (E)-ferulate] | 6.95 | 223 | 0.03 | 0.05 | 128 | melting point: 68 to 70 °C
9 | COc1cc([C@@H]2c3cc4c(cc3[C@@H](O[C@@H]3O[C@@H]5CO[C@@H](C)O[C@H]5[C@H](O)[C@H]3O)[C@H]3COC(=O)[C@H]23)OCO4)cc(OC)c1O [Etoposide, reference compound] | 10.9 | – | – | – | 44.8 | –
10 | epicatechin-3-O-gallate | – | – | – | – | – | minimum inhibition concentration (MIC) (Staphylococcus aureus): 50 µg/mL; minimum inhibition concentration (MIC) [10]: 50 µg/mL
11 | hexamer of epicatechin | – | – | – | – | – | minimum inhibition concentration (MIC) (Staphylococcus typhi): 25 µg/mL; minimum inhibition concentration (MIC) (Kocuria kristinae): 25 µg/mL

Reference: article PMC10818308, “Phytochemicals from Pterocarpus angolensis DC and Their Cytotoxic Activities against Breast Cancer Cells” (Plants, 2024)
